Values after ≈ are worked out from the molar mass of the structure shown. Counter-ions that a name gives are not always drawn.
Experiments:
Test in all cases: In vitro antibacterial activity, MIC by agar dilution
Assay type in all cases: cell-based
Conditions in all cases: BHI agar, 35-37°C, 20-24 hours, unit assumed
[1] = system: Enterobacter aerogenes ATCC 13048
Experimental: (§1) Each plate was inoculated with 1:100 (or 1:10 for slow growing strains, primarily Micrococcus and Streptococcus) dilutions of up to 32 different microorganisms, using a Steers replicator block calibrated to deliver approximately 10^4 colony forming units (CFUs). The inoculated plates were incubated at from about 35°C to about 37°C for approximately 20-24 hours. In addition, a control plate using BHI agar containing no test compound was prepared and incubated at the beginning and at the end of each test. Ciprofloxacin was used as the control antibiotic.
(§2) The MIC was defined as the lowest concentration of test compound yielding no growth (a slight haze or sparsely isolated colonies at the inoculum spot) as compared to the growth control containing no test compound.

Escherichia coli SS = system: Escherichia coli SS
Experimental: as §1, §2

[2] = system: Pseudomonas aeruginosa K799/61
Experimental: as §1, §2

[3] = system: Providencia stuartii CMX 640
Experimental: as §1, §2

[4] = system: Micrococcus luteus ATCC 9341
Experimental: as §1, §2

[5] = system: Streptococcus bovis A5169
Experimental: as §1, §2

[6] = system: Streptococcus pyrogenes EES61
Experimental: as §1, §2

[7] = system: Staphylococcus aureus A5177
Experimental: as §1, §2

[8] = system: Staphylococcus epidermidis 3519
Experimental: as §1, §2

[9] = system: Enterococcus faecium ATCC 8043
Experimental: as §1, §2

Pseudomonas cepacia 296I = system: Pseudomonas cepacia 296I
Experimental: as §1, §2

[10] = system: Staphylococcus aureus ATCC 6538P
Experimental: as §1, §2

Escherichia coli KNK 437 = system: Escherichia coli KNK 437
Experimental: as §1, §2

[11] = system: Acinetobacter calcoaceticus CMX 669
Experimental: as §1, §2

[12] = system: Pseudomonas aeruginosa K799/WT
Experimental: as §1, §2

[13] = system: Staphylococcus aureus CMX 553
Experimental: as §1, §2

[14] = system: Streptococcus agalactaciae CMX 508
Experimental: as §1, §2

[15] = system: Klebsiella pneumoniae ATCC 8045
Experimental: as §1, §2

[16] = system: Streptococcus pyrogenes 2548 INDUC
Experimental: as §1, §2

[17] = system: Pseudomonas aeruginosa A5007
Experimental: as §1, §2

[18] = system: Pseudomonas aeruginosa BMH10
Experimental: as §1, §2

Escherichia coli DC-2 = system: Escherichia coli DC-2
Experimental: as §1, §2

[19] = system: Staphylococcus aureus NCTC 10649
Experimental: as §1, §2

[20] = system: Micrococcus luteus ATCC 4698
Experimental: as §1, §2

[21] = system: Staphylococcus aureus 642A
Experimental: as §1, §2

Escherichia coli JUHL = system: Escherichia coli JUHL
Experimental: as §1, §2

[22] = system: Streptococcus pyrogenes CONST
Experimental: as §1, §2

[23] = system: Staphylococcus aureus 1775
Experimental: as §1, §2

Escherichia coli H560 = system: Escherichia coli H560
Experimental: as §1, §2

[24] = system: Staphylococcus aureus A-5278
Experimental: as §1, §2

SMILES	MIC values [1]	MIC values (Escherichia coli SS)	MIC values [2]	MIC values [3]	MIC values [4]	MIC values [5]	MIC values [6]	MIC values [7]	MIC values [8]	MIC values [9]	MIC values (Pseudomonas cepacia 296I)	MIC values [10]	MIC values (Escherichia coli KNK 437)	MIC values [11]	MIC values [12]	MIC values [13]	MIC values [14]	MIC values [15]	MIC values [16]	MIC values [17]	further results
CN1CCN(c2nc3c(-c4ccc(F)cc4)cc(C(=O)O)c(=O)n3cc2F)CC1 [Example 1, 3-Fluoro-9-(4-fluorophenyl)-2-(4-methylpiperazin-1-yl)-6H-6-oxo-pyrido[1,2-a]pyrimidine-7-carboxylic acid]	0.78 µg/mL (≈ 1.95 µM)	< 0.05 µg/mL	0.39 µg/mL (≈ 0.974 µM)	25 µg/mL (≈ 62.4 µM)	50 µg/mL (≈ 125 µM)	25 µg/mL (≈ 62.4 µM)	6.2 µg/mL (≈ 15.5 µM)	0.78 µg/mL (≈ 1.95 µM)	0.78 µg/mL (≈ 1.95 µM)	25 µg/mL (≈ 62.4 µM)	25 µg/mL (≈ 62.4 µM)	0.39 µg/mL (≈ 0.974 µM)	6.2 µg/mL (≈ 15.5 µM)	0.78 µg/mL (≈ 1.95 µM)	3.1 µg/mL (≈ 7.74 µM)	0.78 µg/mL (≈ 1.95 µM)	12.5 µg/mL (≈ 31.2 µM)	0.2 µg/mL (≈ 0.5 µM)	3.1 µg/mL (≈ 7.74 µM)	6.2 µg/mL (≈ 15.5 µM)	MIC values [18]: 6.2 µg/mL (≈ 15.5 µM); MIC values (Escherichia coli DC-2): 12.5 µg/mL (≈ 31.2 µM); MIC values [19]: 0.39 µg/mL (≈ 0.974 µM); MIC values [20]: 25 µg/mL (≈ 62.4 µM); MIC values [21]: 0.78 µg/mL (≈ 1.95 µM); MIC values (Escherichia coli JUHL): 0.39 µg/mL (≈ 0.974 µM); MIC values [22]: 6.2 µg/mL (≈ 15.5 µM)
CN1CCN(c2nc3c(-c4ccc(F)cc4)cc(C(=O)O)c(=O)n3cc2F)CC1 [Example 2, 3-Fluoro-9-(4-fluorophenyl)-2-(4-methylpiperazin-1-yl)-6H-6-oxo-pyrido[1,2-a]pyrimidine-7-carboxylic acid]	0.78 µg/mL (≈ 1.95 µM)	0.05 µg/mL (≈ 0.125 µM)	0.39 µg/mL (≈ 0.974 µM)	25 µg/mL (≈ 62.4 µM)	50 µg/mL (≈ 125 µM)	25 µg/mL (≈ 62.4 µM)	6.2 µg/mL (≈ 15.5 µM)	0.78 µg/mL (≈ 1.95 µM)	0.78 µg/mL (≈ 1.95 µM)	25 µg/mL (≈ 62.4 µM)	25 µg/mL (≈ 62.4 µM)	0.39 µg/mL (≈ 0.974 µM)	6.2 µg/mL (≈ 15.5 µM)	0.78 µg/mL (≈ 1.95 µM)	3.1 µg/mL (≈ 7.74 µM)	0.78 µg/mL (≈ 1.95 µM)	12.5 µg/mL (≈ 31.2 µM)	0.2 µg/mL (≈ 0.5 µM)	3.1 µg/mL (≈ 7.74 µM)	6.2 µg/mL (≈ 15.5 µM)	MIC values [23]: 25 µg/mL (≈ 62.4 µM); MIC values (Escherichia coli H560): 0.39 µg/mL (≈ 0.974 µM); MIC values [24]: 0.78 µg/mL (≈ 1.95 µM); MIC values [18]: 6.2 µg/mL (≈ 15.5 µM); MIC values (Escherichia coli DC-2): 12.5 µg/mL (≈ 31.2 µM); MIC values [19]: 0.39 µg/mL (≈ 0.974 µM); MIC values [20]: 25 µg/mL (≈ 62.4 µM); MIC values [21]: 0.78 µg/mL (≈ 1.95 µM); MIC values (Escherichia coli JUHL): 0.39 µg/mL (≈ 0.974 µM); MIC values [22]: 6.2 µg/mL (≈ 15.5 µM)
CCc1cc(C(=O)O)c(=O)n2ccc(N3CCC(N)C3)cc12.Cl (centres unmarked) [Example 62, 8-(3-Amino-1-pyrrolidinyl)-1-ethyl-4H-quinolizin-4-one-3-carboxylic acid hydrochloride]	3.1 µg/mL	0.39 µg/mL	0.05 µg/mL	25 µg/mL	25 µg/mL	25 µg/mL	25 µg/mL	12.5 µg/mL	12.5 µg/mL	50 µg/mL	3.1 µg/mL	3.1 µg/mL	25 µg/mL	0.78 µg/mL	6.2 µg/mL	12.5 µg/mL	25 µg/mL	3.1 µg/mL	25 µg/mL	6.2 µg/mL	MIC values (Escherichia coli H560): 3.1 µg/mL; MIC values [18]: 6.2 µg/mL; MIC values (Escherichia coli DC-2): 25 µg/mL; MIC values [19]: 6.2 µg/mL; MIC values [20]: 12.5 µg/mL; MIC values [21]: 6.2 µg/mL; MIC values (Escherichia coli JUHL): 3.1 µg/mL; MIC values [22]: 25 µg/mL
CCc1cc(C(=O)O)c(=O)n2ccc(N3CCNC(C)C3)cc12.Cl (centres unmarked) [Example 64, 1-Ethyl-8-(3-methyl-1-piperazinyl)-4H-quinolizin-4-one-3-carboxylic acid hydrochloride]	6.2 µg/mL	1.56 µg/mL	6.2 µg/mL	> 100 µg/mL	25 µg/mL	25 µg/mL	50 µg/mL	50 µg/mL	50 µg/mL	100 µg/mL	100 µg/mL	25 µg/mL	100 µg/mL	50 µg/mL	25 µg/mL	50 µg/mL	50 µg/mL	6.2 µg/mL	50 µg/mL	50 µg/mL	MIC values (Escherichia coli H560): 12.5 µg/mL; MIC values [18]: 25 µg/mL; MIC values (Escherichia coli DC-2): 100 µg/mL; MIC values [20]: 25 µg/mL; MIC values (Escherichia coli JUHL): 6.2 µg/mL; MIC values [22]: 50 µg/mL
CCc1cc(C(=O)O)c(=O)n2ccc(N3CCN(C)CC3)cc12.Cl [Example 65, 1-Ethyl-8-(4-methylpiperazin-1-yl)-4H-quinolizin-4-one-3-carboxylic acid hydrochloride]	12.5 µg/mL	1.56 µg/mL	25 µg/mL	> 100 µg/mL	25 µg/mL	100 µg/mL	100 µg/mL	25 µg/mL	25 µg/mL	50 µg/mL	100 µg/mL	12.5 µg/mL	100 µg/mL	25 µg/mL	25 µg/mL	50 µg/mL	100 µg/mL	6.2 µg/mL	50 µg/mL	25 µg/mL	MIC values [18]: 25 µg/mL; MIC values (Escherichia coli DC-2): > 100 µg/mL; MIC values [20]: 25 µg/mL; MIC values (Escherichia coli JUHL): 12.5 µg/mL; MIC values [22]: 50 µg/mL
NC1CCN(c2nc3c(-c4ccc(F)cc4F)cc(C(=O)O)c(=O)n3cc2F)C1 (centres unmarked) [Example 162, 2-(3-Aminopyrrolidin-1-yl)-9-(2,4-difluorophenyl)-3-fluoro-6H-6-oxopyrido[1,2-a]pyrimidine-7-carboxylic acid trifluoroacetic acid salt]																					MIC values ([4]; trifluoroacetic acid salt): 6.2 µg/mL; MIC values ([23]; trifluoroacetic acid salt): > 100 µg/mL; MIC values ([8]; trifluoroacetic acid salt): 0.2 µg/mL; MIC values (Pseudomonas cepacia 296I; trifluoroacetic acid salt): 6.2 µg/mL; MIC values ([10]; trifluoroacetic acid salt): 0.1 µg/mL; MIC values (Escherichia coli KNK 437; trifluoroacetic acid salt): 0.39 µg/mL; MIC values ([11]; trifluoroacetic acid salt): 0.1 µg/mL; MIC values ([12]; trifluoroacetic acid salt): 0.39 µg/mL; MIC values ([13]; trifluoroacetic acid salt): 0.2 µg/mL; MIC values ([14]; trifluoroacetic acid salt): 0.78 µg/mL; MIC values ([15]; trifluoroacetic acid salt): 0.02 µg/mL; MIC values ([16]; trifluoroacetic acid salt): 0.2 µg/mL; MIC values ([17]; trifluoroacetic acid salt): 0.39 µg/mL; MIC values (Escherichia coli DC-2; trifluoroacetic acid salt): 0.39 µg/mL; MIC values ([19]; trifluoroacetic acid salt): 0.1 µg/mL; MIC values ([21]; trifluoroacetic acid salt): 0.2 µg/mL
